Experimental data from patent publication US12180187B2, “1-phenyl-5-azinylpyrazolyl-3-oxyalkyl acids and their use for controlling unwanted plant growth” (BAYER AKTIENGESELLSCHAFT, priority 2019, dated 2024).
Where “and” joins values, the source holds several entries; their conditions need not be identical. Equal values may be shown once.

How the values were obtained:
AVEFA = assay: Pre-emergence action at 320 g/ha against AVEFA; type: in vivo; details: visual scoring after about 3 weeks vs untreated controls
Method in brief: (§1)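 Pre-emergence soil-surface spray: WP or EC formulation, aqueous, 0.5% additive, 600 l/ha water volume. Greenhouse growth about 3 weeks; visual percent effect relative to untreated pots.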

SETVI [1] = assay: Pre-emergence action against SETVI, 1280 g/ha; type: in vivo, Setaria viridis; details: visual scoring after about 3 weeks vs untreated controls, 100% = plants have died, 0% = like control plants
Method in brief: (§2)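 Mono- and dicot weed seeds sown in sandy loam were treated on the covering soil surface with WP or EC formulations plus 0.5% additive at 600 L water/ha. Pots stayed in a greenhouse; damage was scored visually after ~3 weeks as percent versus untreated controls (100% = dead).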

PHBPU = assay: Pre-emergence action at 320 g/ha against PHBPU; type: in vivo; details: visual scoring after about 3 weeks vs untreated controls
Description: b) Seeds of monocotyledonous and dicotyledonous weed plants and crop plants are placed in plastic or organic planting pots and covered with soil. The compounds of the invention, formulated in the form of wettable powders (WP) or as emulsion concentrates (EC), are then applied onto the surface of the covering soil as aqueous suspension or emulsion with addition of 0.5% additive at a water application rate of 600 l/ha (converted). After the treatment, the pots are placed in a greenhouse and kept under good growth conditions for the trial plants. After about 3 weeks, the effect of the preparations is scored visually in comparison with untreated controls as percentages. For example, 100% activity=the plants have died, 0% activity=like control plants. Tables 13 to 26 below show the effects of selected compounds of the general formula (I) on various harmful plants and at an application rate corresponding to 320 g/ha, which were obtained by the experimental procedure mentioned above.

POAAN [2] = assay: Pre-emergence action against POAAN, 1280 g/ha; type: in vivo, Poa annua; details: visual scoring after about 3 weeks vs untreated controls, 100% = plants have died, 0% = like control plants
Method in brief: as §2

AMARE [3] = assay: Post-emergence action against AMARE, 1.28 kg/ha; type: in vivo, Amaranthus retroflexus; details: dosage 1280 g/ha, visual rating about 3 weeks after treatment vs untreated controls (100% = plants died)
Method in brief: (§3)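 Post-emergence greenhouse spray, one-leaf stage (2–3 wk after sowing), sandy loam. WP/EC, aqueous + 0.5% additive, 600 L/ha water. Visual % activity vs untreated, ~3 wk after treatment; 100% = plants dead.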

MATIN [4] = assay: Pre-emergence action at 320 g/ha against MATIN; type: in vivo, Tripleurospermum inodorum (Matricaria inodora); details: visual scoring after about 3 weeks vs untreated controls
Method in brief: as §1

MATIN [5] = assay: Pre-emergence action against MATIN, 1280 g/ha; type: in vivo, Tripleurospermum inodorum (Matricaria inodora); details: scored visually after about 3 weeks vs untreated controls (100% = plants have died)
Method in brief: as §2

VERPE [6] = assay: Post-emergence action against VERPE, 1.28 kg/ha; type: in vivo, Veronica persica; details: dosage 1280 g/ha, visual rating about 3 weeks after treatment vs untreated controls (100% = plants died)
Method in brief: as §3

VERPE [7] = assay: Pre-emergence action against VERPE, 1280 g/ha; type: in vivo, Veronica persica; details: scored visually after about 3 weeks vs untreated controls (100% = plants have died)
Method in brief: as §2

ALOMY [8] = assay: Post-emergence action against ALOMY, 1.28 kg/ha; type: in vivo, Alopecurus myosuroides; details: dosage 1280 g/ha, visual rating about 3 weeks after treatment vs untreated controls
Method in brief: as §3

LOLRI [9] = assay: Pre-emergence action at 320 g/ha against LOLRI; type: in vivo, Lolium rigidum; details: visual scoring after about 3 weeks vs untreated controls
Method in brief: as §1

MATIN [10] = assay: Post-emergence action against MATIN, 1.28 kg/ha; type: in vivo, Tripleurospermum inodorum (Matricaria inodora); details: dosage 1280 g/ha, visual rating about 3 weeks after treatment vs untreated controls (100% = plants died)
Method in brief: as §3

ABUTH [11] = assay: Pre-emergence action against ABUTH, 1280 g/ha; type: in vivo, Abutilon theophrasti; details: scored visually after about 3 weeks vs untreated controls (100% = plants have died)
Method in brief: as §2

STEME [12] = assay: Post-emergence action against STEME, 1.28 kg/ha; type: in vivo, Stellaria media; details: dosage 1280 g/ha, visual rating about 3 weeks after treatment vs untreated controls (100% = plants died)
Method in brief: as §3

SETVI [13] = assay: Post-emergence action against SETVI, 1.28 kg/ha; type: in vivo, Setaria viridis; details: dosage 1280 g/ha, visual rating about 3 weeks after treatment vs untreated controls
Method in brief: as §3

ECHGC = assay: Pre-emergence action at 320 g/ha against ECHGC; type: in vivo, Echinochloa crus-galli; details: visual scoring after about 3 weeks vs untreated controls
Method in brief: as §1

AMARE [14] = assay: Pre-emergence action against AMARE, 1280 g/ha; type: in vivo, Amaranthus retroflexus; details: scored visually after about 3 weeks vs untreated controls (100% = plants have died)
Method in brief: as §2

LOLRI [15] = assay: Pre-emergence action against LOLRI, 1280 g/ha; type: in vivo, Lolium rigidum; details: visual scoring after about 3 weeks vs untreated controls, 100% = plants have died, 0% = like control plants
Method in brief: as §2

DIGSA [16] = assay: Pre-emergence action against DIGSA, 1280 g/ha; type: in vivo, Digitaria sanguinalis; details: visual scoring after about 3 weeks vs untreated controls, 100% = plants have died, 0% = like control plants
Method in brief: as §2

SETVI [17] = assay: Pre-emergence action at 320 g/ha against SETVI; type: in vivo, Setaria viridis; details: visual scoring after about 3 weeks vs untreated controls
Method in brief: as §1

KCHSC [18] = assay: Post-emergence action against KCHSC, 1.28 kg/ha; type: in vivo, Bassia scoparia; details: dosage 1280 g/ha, visual rating about 3 weeks after treatment vs untreated controls (100% = plants died)
Method in brief: as §3

KCHSC [19] = assay: Pre-emergence action against KCHSC, 1280 g/ha; type: in vivo, Bassia scoparia; details: scored visually after about 3 weeks vs untreated controls (100% = plants have died)
Method in brief: as §2

ECHCG [20] = assay: Pre-emergence action against ECHCG, 1280 g/ha; type: in vivo, Echinochloa crus-galli; details: visual scoring after about 3 weeks vs untreated controls, 100% = plants have died, 0% = like control plants
Method in brief: as §2

ALOMY [21] = assay: Pre-emergence action at 320 g/ha against ALOMY; type: in vivo, Alopecurus myosuroides; details: scored visually after about 3 weeks vs untreated controls (100% = plants have died)
Method in brief: as §1

AMARE [22] = assay: Pre-emergence action at 320 g/ha against AMARE; type: in vivo, Amaranthus retroflexus; details: visual scoring after about 3 weeks vs untreated controls
Method in brief: as §1

VERPE [23] = assay: Pre-emergence action at 320 g/ha against VERPE; type: in vivo, Veronica persica; details: visual scoring after about 3 weeks vs untreated controls
Method in brief: as §1

ABUTH [24] = assay: Post-emergence action against ABUTH, 1.28 kg/ha; type: in vivo, Abutilon theophrasti; details: dosage 1280 g/ha, visual rating about 3 weeks after treatment vs untreated controls (100% = plants died)
Method in brief: as §3

LOLRI [25] = assay: Post-emergence action against LOLRI, 1.28 kg/ha; type: in vivo, Lolium rigidum; details: dosage 1280 g/ha, visual rating about 3 weeks after treatment vs untreated controls
Method in brief: as §3

POLCO = assay: Pre-emergence action at 320 g/ha against POLCO; type: in vivo, Fallopia convolvulus (Polygonum convolvulus); details: visual scoring after about 3 weeks vs untreated controls
Method in brief: as §1

DIGSA [26] = assay: Pre-emergence action at 320 g/ha against DIGSA; type: in vivo, Digitaria sanguinalis; details: visual scoring after about 3 weeks vs untreated controls
Method in brief: as §1

STEME [27] = assay: Pre-emergence action against STEME, 1280 g/ha; type: in vivo, Stellaria media; details: scored visually after about 3 weeks vs untreated controls (100% = plants have died)
Method in brief: as §2

POAAN [28] = assay: Post-emergence action against POAAN, 1.28 kg/ha; type: in vivo, Poa annua; details: dosage 1280 g/ha, visual rating about 3 weeks after treatment vs untreated controls
Method in brief: as §3

ECHCG [29] = assay: Post-emergence action against ECHCG, 1.28 kg/ha; type: in vivo, Echinochloa crus-galli; details: dosage 1280 g/ha, visual rating about 3 weeks after treatment vs untreated controls
Method in brief: as §3

DIGSA [30] = assay: Post-emergence action against DIGSA, 1.28 kg/ha; type: in vivo, Digitaria sanguinalis; details: dosage 1280 g/ha, visual rating about 3 weeks after treatment vs untreated controls
Method in brief: as §3

ALOMY [31] = assay: Pre-emergence action against ALOMY, 1280 g/ha; type: in vivo, Alopecurus myosuroides; details: visual scoring after about 3 weeks vs untreated controls, 100% = plants have died, 0% = like control plants
Method in brief: as §2

VIOTR = assay: Pre-emergence action at 320 g/ha against VIOTR; type: in vivo, Viola tricolor; details: dosage 320 g/ha
Method in brief: as §1

In the case of O=C(COc1nn(-c2ccccc2F)c(-c2ccc(F)nc2)c1Br)O[C@H]1CCOC1=O [VII-064], the “Pre-emergence action against AVEFA in %” value (AVEFA) is reported as 90%, the “Pre-emergence action against SETVI” value (SETVI [1]) is reported as 100% and the “Pre-emergence action against PHBPU in %” value (PHBPU) is reported as 90%. For the same compound, the “Pre-emergence action against POAAN” value (POAAN [2]) was 100%, the “Post-emergence action against AMARE” value (AMARE [3]) was 90% and 100% and the “Pre-emergence action against MATIN in %” value (MATIN [4]) was 100%. For the same compound, the “Pre-emergence action against MATIN” value (MATIN [5]) was 100%, the “Post-emergence action against VERPE” value (VERPE [6]) was 100% and the “Pre-emergence action against VERPE” value (VERPE [7]) was 100%. The “Post-emergence action against ALOMY” value (ALOMY [8]) was 100%, the “Pre-emergence action against LOLRI in %” value (LOLRI [9]) was 100% and the “Post-emergence action against MATIN” value (MATIN [10]) was 100% and 90%. The “Pre-emergence action against ABUTH” value (ABUTH [11]) was 90%, the “Post-emergence action against STEME” value (STEME [12]) was 100% and the “Post-emergence action against SETVI” value (SETVI [13]) was 100% and 90%. For the same compound, the “Pre-emergence action against ECHGC in %” value (ECHGC) was 100% and 90%, the “Pre-emergence action against AMARE” value (AMARE [14]) was 100% and the “Pre-emergence action against LOLRI” value (LOLRI [15]) was 100%. For the same compound, the “Pre-emergence action against DIGSA” value (DIGSA [16]) was 100%, the “Pre-emergence action against SETVI in %” value (SETVI [17]) was 100% and the “Post-emergence action against KCHSC” value (KCHSC [18]) was 90%. The “Pre-emergence action against KCHSC” value (KCHSC [19]) was 100% and 90%, the “Pre-emergence action against ECHCG” value (ECHCG [20]) was 100% and the “Pre-emergence action at 320 g/ha against ALOMY in %” value (ALOMY [21]) was 100%. For the same compound, the “Pre-emergence action against AMARE in %” value (AMARE [22]) was 100%, the “Pre-emergence action against VERPE in %” value (VERPE [23]) was 100% and the “Post-emergence action against ABUTH” value (ABUTH [24]) was 90%. The “Post-emergence action against LOLRI” value (LOLRI [25]) was 100% and 90%, the “Pre-emergence action against POLCO in %” value (POLCO) was 90% and the “Pre-emergence action against DIGSA in %” value (DIGSA [26]) was 100%. The “Pre-emergence action against STEME” value (STEME [27]) was 100%, the “Post-emergence action against POAAN” value (POAAN [28]) was 100% and the “Post-emergence action against ECHCG” value (ECHCG [29]) was 100%. The “Post-emergence action against DIGSA” value (DIGSA [30]) was 100%, the “Pre-emergence action against ALOMY” value (ALOMY [31]) was 100% and the “Pre-emergence action against VIOTR in %” value (VIOTR) was 100%.
